Test results: ChEMBL document CHEMBL4673225, “Highly Selective PTK2 Proteolysis Targeting Chimeras to Probe Focal Adhesion Kinase Scaffolding Functions” (J Med Chem, 2019)
Activity calls are given as the source filed them. The calls are words filed in the database; no cut-off is given here.

Legend:
[1] = molecular target: T1, Protein cereblon/Focal adhesion kinase 1 (Homo sapiens, UniProt Q05397+Q96SW2); assay: Protac activity at CRBN/PTK2 in human SK-HEP1 cells assessed as induction of PTK2 degradation incubated for 18 hrs by protein capillary electrophoresis method relative to control; format: cell-based
Target sequence in this assay (Q05397 2-1052 limits assumed): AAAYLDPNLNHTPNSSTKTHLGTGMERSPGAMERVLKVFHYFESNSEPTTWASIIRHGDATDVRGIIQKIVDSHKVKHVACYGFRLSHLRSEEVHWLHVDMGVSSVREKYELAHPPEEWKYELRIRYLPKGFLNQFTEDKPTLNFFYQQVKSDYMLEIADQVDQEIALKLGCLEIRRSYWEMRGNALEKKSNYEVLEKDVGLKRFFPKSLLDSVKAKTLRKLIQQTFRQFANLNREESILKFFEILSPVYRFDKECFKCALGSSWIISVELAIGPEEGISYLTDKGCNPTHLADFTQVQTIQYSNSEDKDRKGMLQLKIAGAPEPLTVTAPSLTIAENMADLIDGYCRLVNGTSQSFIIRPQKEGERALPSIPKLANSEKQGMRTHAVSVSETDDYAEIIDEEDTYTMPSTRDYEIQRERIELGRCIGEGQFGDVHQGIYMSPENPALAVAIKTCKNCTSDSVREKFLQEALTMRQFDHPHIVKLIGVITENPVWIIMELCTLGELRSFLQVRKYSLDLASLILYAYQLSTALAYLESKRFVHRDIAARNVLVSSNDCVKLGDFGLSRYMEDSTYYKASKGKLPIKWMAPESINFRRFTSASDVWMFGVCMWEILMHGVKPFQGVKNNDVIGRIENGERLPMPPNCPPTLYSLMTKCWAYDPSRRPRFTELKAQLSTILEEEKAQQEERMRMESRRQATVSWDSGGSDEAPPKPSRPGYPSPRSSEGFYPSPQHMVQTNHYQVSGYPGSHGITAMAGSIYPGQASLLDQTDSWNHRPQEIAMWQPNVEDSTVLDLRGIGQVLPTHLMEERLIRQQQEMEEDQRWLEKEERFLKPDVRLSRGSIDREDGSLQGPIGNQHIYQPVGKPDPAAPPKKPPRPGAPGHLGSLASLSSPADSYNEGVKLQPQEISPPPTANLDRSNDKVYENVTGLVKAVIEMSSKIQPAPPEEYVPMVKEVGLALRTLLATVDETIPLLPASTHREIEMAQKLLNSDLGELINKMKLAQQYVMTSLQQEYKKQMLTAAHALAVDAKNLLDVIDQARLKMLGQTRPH
Target sequence in this assay (Q96SW2 whole entry partner): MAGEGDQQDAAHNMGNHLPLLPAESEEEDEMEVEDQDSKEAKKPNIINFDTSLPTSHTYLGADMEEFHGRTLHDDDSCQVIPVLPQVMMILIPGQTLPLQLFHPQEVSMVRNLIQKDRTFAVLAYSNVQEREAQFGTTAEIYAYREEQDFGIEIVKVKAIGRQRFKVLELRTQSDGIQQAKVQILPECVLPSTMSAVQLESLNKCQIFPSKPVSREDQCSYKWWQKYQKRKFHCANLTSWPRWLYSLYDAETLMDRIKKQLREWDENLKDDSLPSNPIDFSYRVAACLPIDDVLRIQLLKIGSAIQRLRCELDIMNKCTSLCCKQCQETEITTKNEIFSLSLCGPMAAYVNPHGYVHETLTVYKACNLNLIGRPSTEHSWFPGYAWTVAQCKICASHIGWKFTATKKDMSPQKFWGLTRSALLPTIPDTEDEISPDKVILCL

[2] = molecular target: T1, Protein cereblon/Focal adhesion kinase 1; assay: Protac activity at CRBN/PTK2 in human A549 cells assessed as time required for maximal induction of PTK2 degradation at 3 uM by protein capillary electrophoresis method; format: cell-based
Target sequence in this assay (Q05397 2-1052 limits assumed): as the sequence (Q05397 2-1052 limits assumed) above
Target sequence in this assay (Q96SW2 whole entry partner): as the sequence (Q96SW2 whole entry partner) above

[3] = molecular target: T1, Protein cereblon/Focal adhesion kinase 1; assay: Protac activity at CRBN/PTK2 in human Huh-7 cells assessed as induction of PTK2 degradation incubated for 18 hrs by protein capillary electrophoresis method; format: cell-based
[4] = molecular target: T1, Protein cereblon/Focal adhesion kinase 1; assay: Protac activity at CRBN/PTK2 in human SNU-387 cells assessed as induction of PTK2 degradation incubated for 18 hrs by protein capillary electrophoresis method relative to control; format: cell-based
Target sequence in this assay (Q05397 2-1052 limits assumed): as the sequence (Q05397 2-1052 limits assumed) above
Target sequence in this assay (Q96SW2 whole entry partner): as the sequence (Q96SW2 whole entry partner) above

[5] = molecular target: T1, Protein cereblon/Focal adhesion kinase 1; assay: Protac activity at CRBN/PTK2 in human A549 cells assessed as induction of PTK2 degradation incubated for 18 hrs by protein capillary electrophoresis method relative to control; format: cell-based
Target sequence in this assay (Q05397 2-1052 limits assumed): as the sequence (Q05397 2-1052 limits assumed) above
Target sequence in this assay (Q96SW2 whole entry partner): as the sequence (Q96SW2 whole entry partner) above

[6] = molecular target: T1, Protein cereblon/Focal adhesion kinase 1; assay: Protac activity at CRBN/PTK2 in human A549 cells assessed as induction of PTK2 degradation at 1 to 100000 nM incubated for 18 hrs in presence of NEDD8 inhibitor […] by protein capillary electrophoresis method; format: cell-based; conditions: dose 1-100000 nM
Target sequence in this assay (Q05397 2-1052 limits assumed): as the sequence (Q05397 2-1052 limits assumed) above
Target sequence in this assay (Q96SW2 whole entry partner): as the sequence (Q96SW2 whole entry partner) above

[7] = molecular target: T1, Protein cereblon/Focal adhesion kinase 1; assay: Protac activity at CRBN/PTK2 in human Hep3B2.1-7 cells assessed as time required for maximal induction of PTK2 degradation at 3 uM incubated for up to 80 hrs by protein capillary electrophoresis method; conditions: time hrs <=80
Target sequence in this assay (Q05397 2-1052 limits assumed): as the sequence (Q05397 2-1052 limits assumed) above
Target sequence in this assay (Q96SW2 whole entry partner): as the sequence (Q96SW2 whole entry partner) above

[8] = molecular target: T2, von Hippel-Lindau disease tumor suppressor/Focal adhesion kinase 1 (Homo sapiens, UniProt Q05397+P40337); assay: Protac activity at VHL/PTK2 in human Hep3B2.1-7 cells assessed as time required for maximal induction of PTK2 degradation at 3 uM incubated for up to 80 hrs by protein capillary electrophoresis method; conditions: time hrs <=80
Target sequence in this assay (P40337 whole entry partner): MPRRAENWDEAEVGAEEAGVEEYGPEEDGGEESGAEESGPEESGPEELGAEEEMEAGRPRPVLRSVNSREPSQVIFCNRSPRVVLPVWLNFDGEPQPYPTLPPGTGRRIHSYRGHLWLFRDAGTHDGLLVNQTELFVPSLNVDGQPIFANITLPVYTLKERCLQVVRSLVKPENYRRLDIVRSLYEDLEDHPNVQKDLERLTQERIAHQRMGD
Target sequence in this assay (Q05397 2-1052 limits assumed): as the sequence (Q05397 2-1052 limits assumed) above

[9] = molecular target: Leucine-rich repeat serine/threonine-protein kinase 2 (Homo sapiens) (UniProt Q5S007); assay: Inhibition of LRRK2 (unknown origin) at 1 uM relative to control
[10] = molecular target: T2, von Hippel-Lindau disease tumor suppressor/Focal adhesion kinase 1; assay: Protac activity at VHL/PTK2 in human HuCCT-1 cells assessed as induction of PTK2 degradation incubated for 18 hrs by protein capillary electrophoresis method relative to control; format: cell-based
Target sequence in this assay (P40337 whole entry partner): as the sequence (P40337 whole entry partner) above
Target sequence in this assay (Q05397 2-1052 limits assumed): as the sequence (Q05397 2-1052 limits assumed) above

[11] = molecular target: T2, von Hippel-Lindau disease tumor suppressor/Focal adhesion kinase 1; assay: Protac activity at VHL/PTK2 in human SK-HEP1 cells assessed as induction of PTK2 degradation incubated for 18 hrs by protein capillary electrophoresis method relative to control; format: cell-based
Target sequence in this assay (P40337 whole entry partner): as the sequence (P40337 whole entry partner) above
Target sequence in this assay (Q05397 2-1052 limits assumed): as the sequence (Q05397 2-1052 limits assumed) above

[12] = molecular target: T2, von Hippel-Lindau disease tumor suppressor/Focal adhesion kinase 1; assay: Protac activity at VHL/PTK2 in human A549 cells assessed as time required for maximal induction of PTK2 degradation at 3 uM by protein capillary electrophoresis method; format: cell-based
Target sequence in this assay (P40337 whole entry partner): as the sequence (P40337 whole entry partner) above
Target sequence in this assay (Q05397 2-1052 limits assumed): as the sequence (Q05397 2-1052 limits assumed) above

[13] = molecular target: T2, von Hippel-Lindau disease tumor suppressor/Focal adhesion kinase 1; assay: Protac activity at VHL/PTK2 in human SNU-423 cells assessed as induction of PTK2 degradation incubated for 18 hrs by protein capillary electrophoresis method relative to control; format: cell-based
Target sequence in this assay (P40337 whole entry partner): as the sequence (P40337 whole entry partner) above
Target sequence in this assay (Q05397 2-1052 limits assumed): as the sequence (Q05397 2-1052 limits assumed) above

[14] = molecular target: T2, von Hippel-Lindau disease tumor suppressor/Focal adhesion kinase 1; assay: Protac activity at VHL/PTK2 in human SNU-387 cells assessed as induction of PTK2 degradation incubated for 18 hrs by protein capillary electrophoresis method relative to control; format: cell-based
Target sequence in this assay (P40337 whole entry partner): as the sequence (P40337 whole entry partner) above
Target sequence in this assay (Q05397 2-1052 limits assumed): as the sequence (Q05397 2-1052 limits assumed) above

[15] = molecular target: T2, von Hippel-Lindau disease tumor suppressor/Focal adhesion kinase 1; assay: Protac activity at VHL/PTK2 in human Hep3B2.1-7 cells assessed as induction of PTK2 degradation incubated for 18 hrs by protein capillary electrophoresis method relative to control; format: cell-based; conditions: Hep3B
[16] = molecular target: T2, von Hippel-Lindau disease tumor suppressor/Focal adhesion kinase 1; assay: Protac activity at VHL/PTK2 in human SNU-398 cells assessed as induction of PTK2 degradation incubated for 18 hrs by protein capillary electrophoresis method; format: cell-based
Target sequence in this assay (Q05397 whole entry): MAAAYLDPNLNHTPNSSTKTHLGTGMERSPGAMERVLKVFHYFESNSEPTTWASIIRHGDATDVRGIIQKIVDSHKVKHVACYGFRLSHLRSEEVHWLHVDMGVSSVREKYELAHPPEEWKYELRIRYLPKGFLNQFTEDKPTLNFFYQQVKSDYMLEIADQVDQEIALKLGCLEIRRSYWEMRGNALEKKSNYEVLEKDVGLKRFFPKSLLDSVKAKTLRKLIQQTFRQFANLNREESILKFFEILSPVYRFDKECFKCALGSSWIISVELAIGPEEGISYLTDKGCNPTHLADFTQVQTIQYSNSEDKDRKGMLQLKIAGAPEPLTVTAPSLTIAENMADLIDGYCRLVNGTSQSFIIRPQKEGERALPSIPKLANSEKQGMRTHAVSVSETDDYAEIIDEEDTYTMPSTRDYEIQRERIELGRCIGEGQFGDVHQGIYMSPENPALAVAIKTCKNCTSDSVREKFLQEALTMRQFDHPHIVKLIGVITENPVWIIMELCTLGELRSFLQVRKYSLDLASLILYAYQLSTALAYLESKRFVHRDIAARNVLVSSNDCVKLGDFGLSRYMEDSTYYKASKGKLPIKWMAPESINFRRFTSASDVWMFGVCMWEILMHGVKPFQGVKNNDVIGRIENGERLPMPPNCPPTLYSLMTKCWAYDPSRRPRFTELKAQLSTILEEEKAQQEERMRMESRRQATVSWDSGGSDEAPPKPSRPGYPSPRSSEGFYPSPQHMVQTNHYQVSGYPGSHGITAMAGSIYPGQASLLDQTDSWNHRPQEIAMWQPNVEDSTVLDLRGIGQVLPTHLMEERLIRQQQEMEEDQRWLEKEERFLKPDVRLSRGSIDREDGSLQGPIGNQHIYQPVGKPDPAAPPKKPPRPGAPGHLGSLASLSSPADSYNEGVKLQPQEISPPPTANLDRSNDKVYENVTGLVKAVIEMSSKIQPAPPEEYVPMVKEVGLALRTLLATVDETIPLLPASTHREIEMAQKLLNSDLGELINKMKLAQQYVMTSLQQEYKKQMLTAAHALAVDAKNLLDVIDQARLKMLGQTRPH
Target sequence in this assay (P40337 whole entry): as the sequence (P40337 whole entry partner) above

| Structure (SMILES) | Emax [1] [%] | TIME [2] [h] | pDC50 [3] | Emax [4] [%] | Emax [5] [%] | Activity [6] | TIME [7] [h] | TIME [8] [h] | inhibition [9] [%] | Emax [10] [%] | Emax [11] [%] | TIME [12] [h] | Emax [13] [%] | Emax [14] [%] | Emax [15] [%] | pDC50 [16] |
| --- | --- | --- | --- | --- | --- | --- | --- | --- | --- | --- | --- | --- | --- | --- | --- | --- |
| COc1cc(C(=O)NCCOCCOCCOCCC(=O)Nc2cccc3c2C(=O)N(C2CCC(=O)NC2=O)C3=O)ccc1Nc1ncc(C(F)(F)F)c(Oc2cccc3c2C(=O)CC3)n1 (stereo unspecified) | 89 | 18 | 7.3 | 90 | 95 | inactive | 5 | – | – | – | – | – | – | – | – | – |
| COc1cc(C(=O)NCCOCCOCCOCC(=O)N[C@H](C(=O)N2C[C@H](O)C[C@H]2C(=O)NCc2ccc(-c3scnc3C)cc2)C(C)(C)C)ccc1Nc1ncc(C(F)(F)F)c(Oc2cccc3c2C(=O)CC3)n1 | – | – | – | – | – | – | – | 20 | > 90 | 86 | 87 | 72 | 87 | 98 | 59 | 8 |
